What was measured:
[1] = test system: glucose uptake by tps1Δ yeast cells; test: Zero-trans uptake of radioactive glucose in tps1Δ yeast cells; format: cell-based, S. cerevisiae; conditions: tps1∆ cells, 2.5 mM glucose; read-out: IC50 values for 2.5 mM glucose uptake in tps1∆ cells
Procedure: Zero-trans uptake of radioactively labeled [U-^14C]glucose, [U-^14C]fructose or [U-^14C]galactose by S. cerevisiae cells was determined in accordance with previous studies ([45], [75]). Cells were grown on different carbon sources depending on the experiment. For measuring glucose uptake activity in the tps1Δ and tps1Δ hxtΔ strains, cells were grown on YP medium containing 325 mM glycerol (measurement of 10 s). Typically, for compound characterization and kinetic studies in wild type and tps1Δ strains, cells were (pre)grown on Complete Synthetic medium supplemented with 110 mM galactose (measurement of 10 s). In the experiments on the influence of hexokinase activity on the sugar uptake rate, the measurement duration was shortened to 5 s and cells were always grown on YP medium containing 325 mM glycerol and 430 mM ethanol. After harvesting, cells were washed twice with ice-cold 25 mM MES-buffer pH 6, and resuspended in their respective medium without sugar to a final concentration of 45 mg (wet weight)/mL. The amount of added tracer was estimated to give a response close to at least 1000 counts per min in order to adequately counter background noise. Cells were first preincubated for 10 min at 30°C with the compound to acclimate the cells to the temperature and to allow adequate interaction with the compound prior to uptake. Next, hexose sugar was mixed with the cell suspension, which was then incubated at 30°C for 5 or 10 s, depending on the experiment, after which the cells were rapidly filtered over a glass microfiber filter (Whatman GF/C) and washed three times with ice-cold dH2O. The loaded filter was transferred to a scintillation vial containing 3 mL liquid scintillation cocktail (Ultima-Flo M, Perkin Elmer) and counted using the Hidex 300 SL. Three blank measurements per strain were typically included to account for background signal, for which the cells were first quenched before adding the radioactive label.

[2] = test system: yeast tps1Δ strain; test: Growth (rescue) of the yeast tps1Δ strain on galactose with or without glucose; format: cell-based, S. cerevisiae; conditions: 2.5 mM glucose
Procedure: Growth curves were made by measuring OD595 in a 96-well plate using the Multiskan™ FC Microplate Photometer (Thermo Fisher Scientific). Typically, for tps1Δ rescue experiments, cells were (pre)grown in Complete Synthetic medium containing 110 mM galactose. Compounds were always added 10 min prior to glucose addition to ensure maximal interaction between the cells and compounds. Cells originating from the preculture were harvested, washed in medium without sugar, after which they were resuspended to an OD of 0.1 in 200 µL of the appropriate medium. At least three technical replicates were included per condition. OD595 was measured at 30°C every 30 min with a 10-min shaking interval.

[3] = test system: A549 lung adenocarcinoma cells; test: Proliferation of A549 lung adenocarcinoma cells; format: cell-based, human; conditions: for Selected from primary screen for growth inhibition of A549 cells at 50 µM: RPMI 1 mM glucose; for Selected for having an IC50 ratio (10 mM glucose : 1 mM glucose) of A549 growth higher than WBC-A: ratio of IC50 on 10 mM and 1 mM glucose, compared to WBC-A
Procedure: For both adherent A549 and MCF10A H-RAS^V12 cell lines, growth curves were established using the IncuCyte® ZOOM technology. By collecting phase contrast images, the IncuCyte® software provides a calculated confluency percentage from which growth curves can be deducted. The cell number/density was measured by calculating the confluency of phase objects (cells) sticking on the bottom of the well. Cells were seeded at a density of 1000 - 1500 cells/well in a Nunc-Edge™ 96-well plate (Thermo Fisher Scientific) and growth was typically measured over 3 to 5 days. For the measurement of apoptosis induction using the MCF10A H-RAS^V12 cell line, the IncuCyte® Caspase-3/7 green dye was added to the medium in the recommended concentration at the beginning of the growth curve experiment. Apoptosis was detected by taking fluorescent images by excitation at 488 nm followed by IncuCyte® software analysis. Cell growth of the KMS-12-PE multiple myeloma cell line, which grows in suspension, was measured by manual cell counting. Cells were initially seeded at a density of 10^4 cells/well and incubated for 4 days after which the cell number was counted. For all cell lines, the same medium used for pregrowth was also used for the growth curve experiment, albeit with different glucose concentrations depending on the experimental design. With compound administration, the final concentration of DMSO never exceeded 0.1%. Typically, at least four technical repeats were included per condition.

SMILES | IC50 [1] [µM] | Rescue of the tps1∆ strain on 2.5 mM glucose at 100 µM [2] | Minimal rescue concentration for growth of tps1∆ cells on 2.5 mM glucose [2] [µM] | Selected from primary screen for growth inhibition of A549 cells at 50 µM ([3]; 50 µM) | Selected for having an IC50 ratio (10 mM glucose : 1 mM glucose) of A549 growth higher than WBC-A [3] | inhibition of A549 cell proliferation in prescreening ([3]; 50 µM, 1 mM glucose, three days)
Cc1nc(SCC(=O)Nc2cc(C)on2)c2c(-c3cccs3)csc2n1 [WBC-10C] | 24.8 | Yes | 6.25 | Yes | Lower IC50 ratio | 
CCCc1nnc(Sc2nc(C)nc3scc(-c4cccs4)c23)[nH]1 [WBC-50C] | 67.8 | Yes | 50 | Yes | Lower IC50 ratio | 
CCn1c(Sc2nc(C)nc3scc(-c4cccs4)c23)nnc1-c1ccncc1 [WBC-43C] | 8.93 | Yes | 12.5 | Yes |  | 
Cc1nc(SCC(=O)NC(C)(C)C)c2c(-c3cccs3)csc2n1 [WBC-32B] | 30.3 | Yes | 12.5 | Yes | Lower IC50 ratio | 
COCCCNC(=O)CSc1nc(C)nc2scc(-c3cccs3)c12 [WBC-15B] | 32.7 | Yes | 25 | No |  | 
CCn1c(CCC(N)=O)nnc1Sc1nc(C)nc2scc(-c3cccs3)c12 [WBC-16C] | 49.6 | Yes | 50 | Yes | Lower IC50 ratio | 
Cc1nc(SCC(N)=O)c2c(-c3cccs3)csc2n1 [WBC-14A] | 27.9 | Yes | 25 | No |  | 
Cc1nc(SCC(=O)N2CC(C)OC(C)C2)c2c(-c3cccs3)csc2n1 (centres unmarked) [WBC-5B] | 22.5 | Yes | 12.5 | No |  | 
C=C1[C@@H](C)[C@H]2[C@H](Cc3ccccc3)NC(=O)[C@]23OC(=O)/C=C/[C@H](O)CCC[C@@H](C)C/C=C/[C@H]3[C@@H]1O [Cytochalasin B, reference compound] |  |  |  |  |  | the strongest inhibitor of cell proliferation in this assay
Cc1nc(Sc2nnc(C(F)(F)F)n2C)c2c(-c3cccs3)csc2n1 [WBC-54C] | 64.7 | Yes | 50 | Yes | Lower IC50 ratio | 
Cc1nc(SCCO)c2c(-c3cccs3)csc2n1 [WBC-47A] | 15.6 | Yes | 6.25 | Yes | Lower IC50 ratio | 
